Assay results reported in patent US20250361480A1, “REINFORCED ENGINEERED CELLULARIZED-TISSUE” (Ramot at Tel-Aviv University Ltd., priority 2023, published 2025).

Assays:
[1] = ninhydrin absorbance normalized to control, FIG. 2F
Protocol: Aliquots of hydrogel (1 mL) were taken and either reacted with SOx or used as a control. Samples were lyophilized and then immersed in a 0.05% acetic acid solution (1 mL). To this was added 2% Ninhydrin in ethanol (w/v) (1 mL). The mixture was boiled for 90 minutes. Aliquots were taken and the absorbance of the solution was recorded at 570 nm (Infinite M200 Pro; Tecan, Switzerland).
To determine the ability of SOx to react with an ECM-based hydrogel, the concentration of amine groups present in the ECM before and after exposure to the Sox was assessed. […] Data are presented as mean±SD, n=4. All values were normalized to the average value of the control group. P-values were calculated using a one-tailed, unpaired, parametric t-test assuming that all samples have the same distribution.

[2] = previous studies; cells added after crosslinking; cited from earlier work
[3] = Compressive (bulk) modulus of hydrogel; assay type: physicochemical, porcine; details: compression, FIG. 2E
Protocol: The compressive modulus measurements were performed using a Discovery HR-3 Hybrid Rheometer (TA Instruments, DE) with a 20 mm diameter parallel plate geometry and a Peltier plate to maintain the sample temperature. Bulk modulus tests were performed by compressing the samples at a fixed rate of 100 μm s^−1.
Alongside the rheological testing, the bulk mechanical properties of the hydrogel were also assessed. Samples were compressed, and the linear elastic modulus was calculated. Data are presented as mean±SD, n=3.

[4] = Rheological testing, shear thinning of hydrogel; assay type: physicochemical, porcine; details: 37° C., FIG. 2D
Protocol: Rheological measurements were performed using a Discovery HR-3 Hybrid Rheometer (TA Instruments, DE) with a 20 mm diameter parallel plate geometry and a Peltier plate to maintain the sample temperature. Shear thinning experiments were performed by varying the strain rate while maintaining a fixed strain of 20%.
The mechanical properties of an exemplary native ECM-based hydrogel and of cross-linked hydrogels were assessed by rheological measurements. Shear thinning Measurements were conducted at 37° C. Data are presented as mean±SD, n=3. P-values were calculated using a Comparison of Fits test with an Extra Sum of Squares F-test.

[5] = system: Primary human umbilical vein endothelial cells (HUVECs); test: Cell viability of HUVECs in 2D culture with SOx (PrestoBlue); assay type: cell-based; details: SOx concentrations lower than 0.1% in the culturing medium, 48 hours, FIG. 2C
Protocol: Primary human umbilical vein endothelial cells (HUVECs) (Angio-Proteomie) were maintained in Endothelial Growth Medium (EGM-2) (Lonza) supplemented with an additional 1.5% (v/v) fetal bovine serum (FBS) (Biological Industries). Daily, PrestoBlue™ Cell Viability Reagent (Invitrogen) was added and cells were incubated for a fixed time interval. The medium was then transferred to a clean, opaque tissue culture well plate and fresh medium was added to the cells. The fluorescence was measured at 560/590 nm (Infinite M200 Pro).
Cells were incubated for 48 hours in 2D culture in order to allow toxic effects to become discernable. Data are presented in FIG. 2C as mean±standard deviation (SD), n=4.

Substance: Oxidized sucrose [SOx]
- amines of the hydrogel that had reacted with the cross-linker [1]: 46%
- toxicity when used to cross-link non-cellularized scaffolds [2]: reduced toxicity profile
- hydrogel bulk modulus (linear elastic modulus) with and without exposure to SOx [3]: significant reinforcement of the hydrogel
- gel viscosity, further change when increasing the SOx concentration ([4]; SOx raised from 0.03% to 0.07%): smaller increase
- gel viscosity versus control gel ([4]; hydrogel cross-linked with 0.03% SOx): large increase in gel viscosity
- impact on cell viability [5]: no impact on cell viability
